Source: patent US20220125051A1, “PRE-HARVEST DESICCATION METHOD” (SYNGENTA CROP PROTECTION AG, priority 2019, published 2022)
Where two headings read alike, the source gives them in different places.

Key:
Experiment in all cases: Post-emergence efficacy, Method A
Type in all cases: in vivo
[1] = tested on: Amaranthus palmeri (AMAPA); details: evaluated after 13 days; for pest or weed control at 500 g/ha: Amaranthus palmeri, post-emergence, 312 h
Method in brief: (§1)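 Visual damage score, 0 (no damage) to 100 (total), taken 13 d after spraying. Pot-grown plants at 14 d post-sowing received an aqueous spray from a 50 g/l acetone/IF50 solution diluted in 0.25% or 1% Empicol ESC70 + 1% ammonium sulphate; glasshouse 24/16 °C, 14 h light, 65% RH, watered twice daily.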

[2] = tested on: Chenopodium album (CHEAL); details: evaluated after 13 days; for pest or weed control at 500 g/ha: Chenopodium album, post-emergence, 312 h
Method in brief: as §1

[3] = tested on: Digitaria sanguinalis (DIGSA); details: evaluated after 13 days; for pest or weed control at 500 g/ha: Digitaria sanguinalis, post-emergence, 312 h
Method in brief: as §1

[4] = tested on: Echinochloa crus-galli (ECHCG); details: evaluated after 13 days; for pest or weed control at 500 g/ha: Echinochloa crus-galli, post-emergence, 312 h
Method in brief: as §1

Eleusine indica (ELEIN) = details: evaluated after 13 days; for pest or weed control at 500 g/ha: Eleusine indica, post-emergence, 312 h
Method in brief: as §1

[5] = tested on: Euphorbia heterophylla (EPHHL); details: evaluated after 13 days; for pest or weed control at 500 g/ha: Euphorbia heterophylla, post-emergence, 312 h
Method in brief: as §1

[6] = tested on: Ipomoea hederacea (IPOHE); details: evaluated after 13 days; for pest or weed control at 500 g/ha: Ipomoea hederacea, post-emergence, 312 h
Method in brief: as §1

Lolium perenne (LOLPE) = details: evaluated after 13 days; for pest or weed control at 500 g/ha: Lolium perenne, post-emergence, 312 h
Method in brief: as §1

Setaria faberi (SETFA) = details: evaluated after 13 days; for pest or weed control at 500 g/ha: Setaria faberi, post-emergence, 312 h
Method in brief: as §1

[7] = Application rate 500 g/Ha, 100=total damage to plant, 0=no damage to plant, read-out: Control of weed species after post-emergence application, AMAPA
[8] = Application rate 500 g/Ha, 100=total damage to plant, 0=no damage to plant, read-out: Control of weed species after post-emergence application, CHEAL
[9] = Application rate 500 g/Ha, 100=total damage to plant, 0=no damage to plant, read-out: Control of weed species after post-emergence application, DIGSA
[10] = Application rate 500 g/Ha, 100=total damage to plant, 0=no damage to plant, read-out: Control of weed species after post-emergence application, ECHCG
[11] = Application rate 500 g/Ha, 100=total damage to plant, 0=no damage to plant, read-out: Control of weed species after post-emergence application, ELEIN
[12] = Application rate 500 g/Ha, 100=total damage to plant, 0=no damage to plant, read-out: Control of weed species after post-emergence application, EPHHL
[13] = Application rate 500 g/Ha, 100=total damage to plant, 0=no damage to plant, read-out: Control of weed species after post-emergence application, IPOHE
[14] = Application rate 500 g/Ha, 100=total damage to plant, 0=no damage to plant, read-out: Control of weed species after post-emergence application, LOLPE
[15] = Application rate 500 g/Ha, 100=total damage to plant, 0=no damage to plant, read-out: Control of weed species after post-emergence application, SETFA
[16] = Application Rate 500 g/Ha, Method A, read-out: Control of weed species after post-emergence application, AMAPA (100=total damage to plant; 0=no damage to plant)
[17] = Application Rate 500 g/Ha, Method A, read-out: Control of weed species after post-emergence application, CHEAL (100=total damage to plant; 0=no damage to plant)
[18] = Application Rate 500 g/Ha, Method A, read-out: Control of weed species after post-emergence application, DIGSA (100=total damage to plant; 0=no damage to plant)
[19] = Application Rate 500 g/Ha, Method A, read-out: Control of weed species after post-emergence application, ECHCG (100=total damage to plant; 0=no damage to plant)
[20] = Application Rate 500 g/Ha, Method A, read-out: Control of weed species after post-emergence application, ELEIN (100=total damage to plant; 0=no damage to plant)
[21] = Application Rate 500 g/Ha, Method A, read-out: Control of weed species after post-emergence application, EPHHL (100=total damage to plant; 0=no damage to plant)
[22] = Application Rate 500 g/Ha, Method A, read-out: Control of weed species after post-emergence application, IPOHE (100=total damage to plant; 0=no damage to plant)
[23] = Application Rate 500 g/Ha, Method A, read-out: Control of weed species after post-emergence application, LOLPE (100=total damage to plant; 0=no damage to plant)
[24] = Application Rate 500 g/Ha, Method A, read-out: Control of weed species after post-emergence application, SETFA (100=total damage to plant; 0=no damage to plant)
[25] = Application rate 500 g/Ha, 100=total damage to plant, 0=no damage to plant

Compound	pest or weed control at 500 g/ha [1, 7] [%]	pest or weed control at 500 g/ha [2, 8] [%]	pest or weed control at 500 g/ha [3, 9] [%]	pest or weed control at 500 g/ha [4, 10] [%]	pest or weed control at 500 g/ha (Eleusine indica (ELEIN); [11]) [%]	pest or weed control at 500 g/ha [5, 12] [%]	pest or weed control at 500 g/ha [6, 13] [%]	pest or weed control at 500 g/ha (Lolium perenne (LOLPE); [14]) [%]	pest or weed control at 500 g/ha (Setaria faberi (SETFA); [15]) [%]	pest or weed control at 500 g/ha [1, 16] [%]	pest or weed control at 500 g/ha [2, 17] [%]	pest or weed control at 500 g/ha [3, 18] [%]	pest or weed control at 500 g/ha [4, 19] [%]	pest or weed control at 500 g/ha (Eleusine indica (ELEIN); [20]) [%]	pest or weed control at 500 g/ha [5, 21] [%]	pest or weed control at 500 g/ha [6, 22] [%]	pest or weed control at 500 g/ha (Lolium perenne (LOLPE); [23]) [%]	pest or weed control at 500 g/ha (Setaria faberi (SETFA); [24]) [%]	further results
O=S(=O)([O-])CC[n+]1ccc(-c2nccc(C3CC3)n2)cn1 [Compound A50]	100	20	50	40	90	90	50	60	60										
O=S(=O)([N-]CC[n+]1ccc(-c2ncccn2)cn1)C(F)(F)F [Compound A225]										100	90	60	30	90	100	70	30	30	
N[C@H](CC[n+]1ccc(-c2ccncn2)cn1)C(=O)O [Compound A235]										10	40	40	30	10	20	20	0	30	
COC(=O)CC[n+]1ccc(-c2ccncc2)cn1 [Compound A203]										100	90	70	50	60	50	20	0	60	
COc1cnc(-c2cc[n+](CCC(=O)[O-])nc2)nc1 [Compound A38]	100	50	100	30	70	30	20	40	70										
O=S(=O)([O-])CC[n+]1ccc(-c2ncc(F)cc2F)cn1 [Compound A70]	90	70	30	30	20	50	20	20	30										
N[C@@H](C[n+]1ccc(-c2ncccn2)cn1)C(=O)O [Compound A208, [(1S)-1-carboxy-2-(4-pyrimidin-2-ylpyridazin-1-ium-1-yl)ethyl]ammonium 2,2,2-trifluoroacetate]										100	80	40	30	60	50	20	10	60	
O=S(=O)([O-])CC[n+]1ccc(-c2ncc(F)cn2)cn1 [Compound A19]	100	60	50	40	60	60	40	20	60										
O=C(O)CC[n+]1ccc(-c2ncc(CO)cn2)cn1 [Compound A162]										100	70	70	90	80	80	10	90	70	
N#Cc1ccnc(-c2cc[n+](CCO)nc2)n1 [Compound A186]										70	70	60	30	50	30	30	10	60	
N#Cc1cnc(-c2cc[n+](CCS(=O)(=O)O)nc2)nc1 [Compound A25]																			Control of weed species after post-emergence application, AMAPA [1, 25]: 100; Control of weed species after post-emergence application, CHEAL [2, 25]: 60; Control of weed species after post-emergence application, DIGSA [3, 25]: 50; Control of weed species after post-emergence application, ECHCG [4, 25]: 70; Control of weed species after post-emergence application, ELEIN (Eleusine indica (ELEIN); [25]): 50; Control of weed species after post-emergence application, EPHHL [5, 25]: 40; Control of weed species after post-emergence application, IPOHE [6, 25]: 50; Control of weed species after post-emergence application, LOLPE (Lolium perenne (LOLPE); [25]): 40; Control of weed species after post-emergence application, SETFA (Setaria faberi (SETFA); [25]): 60
CNC(=O)c1ccnc(-c2cc[n+](CCC(=O)[O-])nc2)n1 [Compound A59]	90	90	100	80	90	100	80	70	100										
O=C(O)CC[n+]1ccc(-c2ccncc2F)cn1 [Compound A157]										100	100	70	80	90	80	60	30	80	
Cc1ccc(-c2cc[n+](CCS(=O)(=O)[O-])nc2)nc1 [Compound A155]										20	10	50	40	30	30	20	50	40	
Cc1cc(-c2ncccn2)cn[n+]1CCS(=O)(=O)[O-] [Compound A212, 2-(6-methyl-4-pyrimidin-2-yl-pyridazin-1-ium-1-yl)ethanesulfonate]										100	100	90	70	90	100	30	70	80	
